One assay has as its system Laodelphax striatellus. Nature of the assay: Insecticidal test on Laodelphax striatellus (rice seedling dip). The conditions noted are these: 192 h, rice seedlings dipped 30 seconds, 3rd-instar larvae, 8 days after inoculation, read-out: insecticidal efficacy (corrected mortality rate), activity level. It counts as in vivo. From the text: Insecticidal Test on Laodelphax striatellus
The condensed heterocyclic compounds represented by the general formula (1) of the present invention or salts thereof were separately dispersed in water and diluted to 500 ppm. Rice plant seedlings (variety: Nihonbare) were dipped in the agrochemical dispersions for 30 seconds. After air-dried, each seedling was put into a separate glass test tube and inoculated with ten 3rd-instar larvae of Laodelphax striatellus, and then the glass test tubes were capped with cotton plugs. At 8 days after the inoculation, the numbers of surviving larvae and dead larvae were counted, the corrected mortality rate was calculated according to the formula shown below, and the insecticidal efficacy was evaluated according to the criteria shown below. Corrected mortality rate (%)=100×(Survival rate in a non-treatment plot−Survival rate in a treatment plot)/Survival rate in a non-treatment plot [Math. 2] Corrected Mortality Rate A: the corrected mortality rate is 100%. B: the corrected mortality rate is 90 to 99%. C: the corrected mortality rate is 80 to 89%. D: the corrected mortality rate is 50 to 79%.

The next assay concerns Plutella xylostella. Nature of the assay: Insecticidal test on Plutella xylostella (dip of Chinese cabbage seedlings with laid eggs). It counts as in vivo. The conditions noted are these: 144 h, seedlings with laid eggs dipped about 30 seconds, 25° C., 6 days after dip treatment, criteria of Test Example 2, read-out: insecticidal efficacy (corrected mortality rate), activity level. The text has this: Insecticidal Test on Plutella xylostella
Adults of Plutella xylostella were released onto Chinese cabbage seedlings and allowed to lay eggs thereon. At 2 days after the release of the adults, the Chinese cabbage seedlings with laid eggs were dipped for about 30 seconds in agrochemical dispersions diluted to 500 ppm, each of which contained a different condensed heterocyclic compound represented by the general formula (1) of the present invention as an active ingredient. After air-dried, the seedlings were kept in a thermostatic chamber at 25° C. At 6 days after the dip treatment, the number of hatched larvae per plot was counted, the mortality rate was calculated according to the formula shown below, and the insecticidal efficacy was evaluated according to the criteria of Test Example 2. This test was conducted in triplicate using 10 adults of Plutella xylostella per plot. Corrected mortality rate (%)=100×(Number of hatched larvae in a non-treatment plot−Number of hatched larvae in a treatment plot)/Number of hatched larvae in a non-treatment plot [Math. 3]

Structures are written as SMILES.

With `CCS(=O)(=O)c1cc(-c2cccc(C(F)(F)F)c2)cnc1-c1nnc2cc(C(F)(F)F)ncn12` [Compound 2-36, 3-(3-(ethylsulfonyl)-5-(3-(trifluoromethyl)phenyl)pyridin-2-yl)-(7-trifluoromethyl)-[1,2,4]Triazolo[4,3-c]Pyrimidine], the mortality at 500 ppm in the assay with Laodelphax striatellus and in the assay with Plutella xylostella was 100% each time.

Take `CCS(=O)(=O)c1cc2ccc(C(F)(F)F)cc2nc1-c1nnc2cc(C(F)(F)C(F)(F)F)ncn12` [Compound 4-27, 3-(ethylsulfonyl)-2-(7-pentafluoroethyl)-[1,2,4]triazolo[4,3-c]pyrimidin-3-yl-7-(trifluoromethyl) quinoline]: the mortality at 500 ppm in the assay on Laodelphax striatellus and in the assay on Plutella xylostella was 100% throughout.

Source of the values: US11064699B2, “Condensed heterocyclic compound or salt thereof, agricultural and horticultural insecticide comprising the compound or the salt, and method for using the insecticide” (Nihon Nohyaku Co., Ltd., priority 2017, dated 2021).
